ChEMBL document CHEMBL1201862, “PubChem BioAssay data set” (2004)
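Grown in 96-well plates, cells were treated for 48 hours with each compound at five concentrations. Insufficient inhibition: endpoint recorded as highest concentration tested. Abbreviation: GI50, concentration required for 50% inhibition of growth.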 Active and inactive are the calls of the source. Rule as the data show it: active = GI50 up to about 1.1 µM and inactive = higher.

Assays:
Assay in all cases: NCI tumour cell line growth inhibition, 48 h
MOLT-4 = tested on: MOLT-4
CCRF-CEM = tested on: CCRF-CEM
HOP-92 = tested on: HOP-92
HL-60 = tested on: HL-60
Hs-578T = tested on: Hs-578T
OVCAR-4 = tested on: OVCAR-4
SF-539 = tested on: SF-539
CAKI-1 = tested on: CAKI-1
A549 = tested on: A549
SR = tested on: SR
UACC-257 = tested on: UACC-257
HOP-62 = tested on: HOP-62
SK-MEL-28 = tested on: SK-MEL-28
786-0 = tested on: 786-0
SK-OV-3 = tested on: SK-OV-3
SK-MEL-5 = tested on: SK-MEL-5
PC-3 = tested on: PC-3
K562 = tested on: K562
HCT-15 = tested on: HCT-15
KM-20L2 = tested on: KM-20L2

SMILES	GI50 (MOLT-4)	GI50 (CCRF-CEM)	GI50 (HOP-92)	GI50 (HL-60)	GI50 (Hs-578T)	GI50 (OVCAR-4)	GI50 (SF-539)	GI50 (CAKI-1)	GI50 (A549)	GI50 (SR)	GI50 (UACC-257)	GI50 (HOP-62)	GI50 (SK-MEL-28)	GI50 (786-0)	GI50 (SK-OV-3)	GI50 (SK-MEL-5)	GI50 (PC-3)	GI50 (K562)	GI50 (HCT-15) [µM]	GI50 (KM-20L2)
O=C(O)c1ccc(C(=O)Nc2cccc3ccccc23)c(C(=O)O)c1	> 100 µM (inactive)	> 100 µM (inactive)	> 100 µM (inactive)	> 100 µM (inactive)	> 100 µM (inactive)	> 100 µM (inactive)	> 100 µM (inactive)	> 100 µM (inactive)	> 100 µM (inactive)	> 100 µM (inactive)	> 100 µM (inactive)	> 100 µM (inactive)	> 100 µM (inactive)	> 100 µM (inactive)	> 100 µM (inactive)	> 100 µM (inactive)	> 100 µM (inactive)	> 100 µM (inactive)	> 100	–
CC(=O)OCC1OC(O[C@H]2C=C[C@@H](C(=O)OCc3ccccc3)n3c(=O)n(-c4ccccc4)c(=O)n32)C(OC(C)=O)C(OC(C)=O)C1OC(C)=O (stereo not given in full)	2.09 µM (inactive)	0.851 µM (active)	1.96 µM (inactive)	0.262 µM (active)	1.99 µM (inactive)	2.54 µM (inactive)	1.82 µM (inactive)	1.48 µM (inactive)	17.2 µM (inactive)	1.3 µM (inactive)	1.92 µM (inactive)	5.01 µM (inactive)	1.86 µM (inactive)	1.6 µM (inactive)	18.7 µM (inactive)	1.14 µM (inactive)	3.69 µM (inactive)	1.63 µM (inactive)	0.741	–
CC(NP(=O)(c1ccccc1)c1ccccc1)c1ccccc1 (stereo not given)	> 100 µM (inactive)	> 100 µM (inactive)	> 100 µM (inactive)	> 100 µM (inactive)	> 100 µM (inactive)	> 100 µM (inactive)	> 100 µM (inactive)	> 100 µM (inactive)	> 100 µM (inactive)	> 100 µM (inactive)	> 100 µM (inactive)	> 100 µM (inactive)	> 100 µM (inactive)	> 100 µM (inactive)	> 100 µM (inactive)	> 100 µM (inactive)	> 100 µM (inactive)	> 100 µM (inactive)	> 100	–
CCCCCCC(=O)OC[n+]1ccc(-c2c(COC(=O)NC(C)C)c(COC(=O)NC(C)C)c3n2CCC3)cc1	25.2 µM (inactive)	24.6 µM (inactive)	63.5 µM (inactive)	23.3 µM (inactive)	> 100 µM (inactive)	> 100 µM (inactive)	45.1 µM (inactive)	30.8 µM (inactive)	> 87.7 µM (inactive)	10 µM (inactive)	> 100 µM (inactive)	> 64.3 µM (inactive)	> 100 µM (inactive)	39.6 µM (inactive)	> 100 µM (inactive)	> 100 µM (inactive)	> 90.8 µM (inactive)	> 100 µM (inactive)	> 100	–
CC(=O)OCC1OC(n2c(-c3ccccc3)c(/N=N/c3ccccc3)c(C)c(C#N)c2=S)C(OC(C)=O)C(OC(C)=O)C1OC(C)=O (stereo not given)	> 100 µM (inactive)	> 100 µM (inactive)	28.4 µM (inactive)	> 100 µM (inactive)	> 100 µM (inactive)	> 100 µM (inactive)	> 100 µM (inactive)	> 100 µM (inactive)	> 100 µM (inactive)	> 100 µM (inactive)	12.3 µM (inactive)	> 100 µM (inactive)	> 100 µM (inactive)	> 100 µM (inactive)	> 100 µM (inactive)	> 100 µM (inactive)	> 100 µM (inactive)	> 100 µM (inactive)	> 100	–
COc1ccc(CCNCc2cccc(OC)c2OC)cc1OC	> 100 µM (inactive)	> 100 µM (inactive)	38.1 µM (inactive)	> 100 µM (inactive)	–	> 100 µM (inactive)	–	> 100 µM (inactive)	> 100 µM (inactive)	–	> 100 µM (inactive)	> 100 µM (inactive)	> 100 µM (inactive)	> 100 µM (inactive)	> 100 µM (inactive)	> 100 µM (inactive)	–	> 100 µM (inactive)	> 100	> 100 µM (inactive)
CCN(CC)c1ccc2cc(C(=O)Nc3ccccc3)c(=N)oc2c1	> 100 µM (inactive)	> 100 µM (inactive)	> 100 µM (inactive)	> 100 µM (inactive)	> 100 µM (inactive)	> 100 µM (inactive)	> 100 µM (inactive)	> 100 µM (inactive)	> 100 µM (inactive)	> 100 µM (inactive)	> 100 µM (inactive)	> 100 µM (inactive)	> 100 µM (inactive)	> 100 µM (inactive)	> 100 µM (inactive)	> 100 µM (inactive)	> 100 µM (inactive)	> 100 µM (inactive)	> 100	–
